How the values were obtained:
[1] = tested on: H. influenzae acrB; assay: Antibacterial activity; type: cell-based, Haemophilus influenzae; settings: efflux-negative strain
[2] = tested on: S30 extracts of E. coli, coupled Transcription-Translation (RNA polymerase)
[3] = tested on: S30 extracts of E. coli, coupled Transcription-Translation (RNA polymerase); settings: high-throughput screen hit; cited from earlier work
[4] = logD7.4
[5] = equilibrium solubility
[6] = tested on: rabbit reticulocytes, eukaryotic TT; assay: Eukaryotic TT assay using rabbit reticulocytes; type: biochemical; settings: read-out: IC50 eukaryotic TT assay, data not shown
[7] = cited from earlier work

3,5-dimethyl-N-(2-(4-(4-methylbenzyl)piperidin-1-yl)-3,4-dioxocyclobut-1-enyl)isoxazole-4-sulfonamide [compound 1]
MIC H. influenzae acrB [1]: 200 µM | IC50 ([2]; read-out: IC50 Eco-TT, E. coli coupled transcription-translation assay): 280 nM | half maximal inhibitory concentration (IC50), TT assay [3]: sub-micromolar | logD [4]: 0.1 | Solubility [5]: >1000 µM | fu, compound fraction unbound to human plasma protein (human plasma, minimum detection level 1%): <1% | IC50 [6]: > 100000 nM

O=c1c(NS(=O)(=O)c2ccccc2)c(N2CCC(Cc3ccccc3)CC2)c1=O [compound 2, N-(2-(4-benzylpiperidin-1-yl)-3,4-dioxocyclobut-1-enyl)benzenesulfonamide]
reduction in activity/potency in the TT assay ([2]; compared to compound 1): 7 fold

Cc1nn(C(F)F)cc1S(=O)(=O)Nc1c(N2CCC(Cc3ccccc3)CC2)c(=O)c1=O [compound 3, N-(2-(4-benzylpiperidin-1-yl)-3,4-dioxocyclobut-1-enyl)-1-(difluoromethyl)-3-methyl-1H-pyrazole-4-sulfonamide]
biochemical activity in TT assay, in words [2]: biochemically active

Cc1noc(C)c1C(=O)Nc1c(N2CCC(Cc3ccccc3)CC2)c(=O)c1=O [compound 4, N-(2-(4-benzylpiperidin-1-yl)-3,4-dioxocyclobut-1-enyl)-3,5-dimethylisoxazole-4-carboxamide]
biochemical activity in TT assay, in words [2]: inactive

Cc1noc(C)c1S(=O)(=O)Nc1c(N2CCC(C)CC2)c(=O)c1=O [compound 5, 3,5-dimethyl-N-(2-(4-methylpiperidin-1-yl)-3,4-dioxocyclobut-1-enyl)isoxazole-4-sulfonamide]
biochemical activity in TT assay, in words [2]: inactive

Cc1noc(C)c1S(=O)(=O)Nc1c(N2CCC(c3ccccc3)CC2)c(=O)c1=O [compound 6, N-(3,4-dioxo-2-(4-phenylpiperidin-1-yl)cyclobut-1-enyl)-3,5-dimethylisoxazole-4-sulfonamide]
biochemical activity in TT assay, in words [2]: much less active

Cc1noc(C)c1S(=O)(=O)Nc1c(N2CCC(NCc3ccc(C(F)(F)F)cc3)CC2)c(=O)c1=O [compound 14, N-(3,4-dioxo-2-(4-(4-(trifluoromethyl)benzylamino)piperidin-1-yl)cyclobut-1-enyl)-3,5-dimethylisoxazole-4-sulfonamide]
improvement of free fraction (fu) (compound 14 versus compound 8): 7 fold | reduction of free fraction (compound 14 versus compound 13): four

Cc1noc(C)c1S(=O)(=O)Nc1c(N2CCC(N(C)CC3CCCCC3)CC2)c(=O)c1=O [compound 17, N-(2-(4-((cyclohexylmethyl)(methyl)amino)piperidin-1-yl)-3,4-dioxocyclobut-1-enyl)-3,5-dimethylisoxazole-4-sulfonamide]
biochemical activity in TT assay, in words [2]: inactive

myxopyronin
plasma protein binding, in words [7]: highly plasma protein bound
